Source: PubChem BioAssay AID248 (DTP/NCI, 2004)
Values joined by “and” are separate entries in the source; they are usually repeats but may differ in a detail not shown here. Equal entries are not always repeated. Inconclusive results and toxic doses are left out. Cut-off read from the data, not from the text of the source: active = T/C of 150% or more; inactive = T/C below 125%. Square brackets hold non-standard residues; d marks the D form. Peptide text beside a SMILES is read from it. * marks the point of attachment. ξ: configuration not given here. Cbz = O=C(OCc1ccccc1)*; ξNle = CCCCC(N)C(=O)O

Tested on: L1210 leukemia ip in BDF1 mice, survival T/C
Test: NCI In Vivo Anticancer Drug Screen. Data for tumor model L1210 Leukemia (intraperitoneal) in B6D2F1 (BDF1) mice
Settings: endpoint: mean survival time, higher = longer survival
How it was run: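 Each compound was tested against a transplantable tumor grown in mice. The endpoint was survival, with treated animals benchmarked against vehicle controls as a simple ratio.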

[1] = dose: 50.0 mg/kg/injection, schedule: Q01DX009 (ip), vehicle: Klucel (hydroxypropylcellulose) (HPC)
[2] = dose: 100.0 mg/kg/injection, schedule: Q01DX009 (ip), vehicle: Klucel (hydroxypropylcellulose) (HPC)
[3] = dose: 100.0 mg/kg/injection, schedule: Q04DX003 (ip), vehicle: Klucel (hydroxypropylcellulose) (HPC)
[4] = dose: 200.0 mg/kg/injection, schedule: Q01DX009 (ip), vehicle: Klucel (hydroxypropylcellulose) (HPC)
[5] = dose: 200.0 mg/kg/injection, schedule: Q04DX003 (ip), vehicle: Klucel (hydroxypropylcellulose) (HPC)
[6] = dose: 25.0 mg/kg/injection, schedule: Q01DX009 (ip), vehicle: saline
[7] = dose: 50.0 mg/kg/injection, schedule: Q01DX009 (ip), vehicle: saline
[8] = dose: 100.0 mg/kg/injection, schedule: Q01DX009 (ip), vehicle: saline
[9] = dose: 6.25 mg/kg/injection, schedule: Q04DX003 (ip), vehicle: Klucel (hydroxypropylcellulose) (HPC)
[10] = dose: 12.5 mg/kg/injection, schedule: Q04DX003 (ip), vehicle: Klucel (hydroxypropylcellulose) (HPC)
[11] = dose: 100.0 mg/kg/injection, schedule: Q04DX002 (ip), vehicle: Klucel (hydroxypropylcellulose) (HPC)
[12] = dose: 200.0 mg/kg/injection, schedule: Q04DX002 (ip), vehicle: Klucel (hydroxypropylcellulose) (HPC)
[13] = dose: 400.0 mg/kg/injection, schedule: Q04DX002 (ip), vehicle: Klucel (hydroxypropylcellulose) (HPC)
[14] = dose: 50.0 mg/kg/injection, schedule: Q01DX009 (ip), vehicle: saline with Tween-80
[15] = dose: 100.0 mg/kg/injection, schedule: Q01DX001 (ip), vehicle: carboxymethylcellulose (CMC)
[16] = dose: 100.0 mg/kg/injection, schedule: Q01DX009 (ip), vehicle: saline with Tween-80
[17] = dose: 200.0 mg/kg/injection, schedule: Q01DX001 (ip), vehicle: carboxymethylcellulose (CMC)
[18] = dose: 200.0 mg/kg/injection, schedule: Q01DX009 (ip), vehicle: saline with Tween-80
[19] = dose: 400.0 mg/kg/injection, schedule: Q01DX001 (ip), vehicle: carboxymethylcellulose (CMC)
[20] = dose: 200.0 mg/kg/injection, schedule: Q01DX009 (ip), vehicle: saline
[21] = dose: 400.0 mg/kg/injection, schedule: Q01DX009 (ip), vehicle: Klucel (hydroxypropylcellulose) (HPC)
[22] = dose: 100.0 mg/kg/injection, schedule: Q01DX001 (ip), vehicle: saline with Tween-80
[23] = dose: 200.0 mg/kg/injection, schedule: Q01DX001 (ip), vehicle: saline with Tween-80

Measured: T/C

Cc1ccc(NC(=O)N(Cc2ccccc2)Cc2ccccc2)c([N+](=O)[O-])c1
inactive: [1] 87 % of control | [2] 123 % of control | [3] 95 % of control | [4] 90 % of control | [5] 101 % of control | dose: 400.0 mg/kg/injection, schedule: Q04DX003 (ip), vehicle: Klucel (hydroxypropylcellulose) (HPC) 99 % of control

COCC(O)CN1CCN(c2ccccc2C)CC1 (stereo unspecified)
inactive: [6] 108 % of control | [7] 93 % of control | [8] 100 % of control

Cc1cc(C(=O)CCC(=O)O)c(C)s1
inactive: dose: 100.0 mg/kg/injection, schedule: Q01DX009 (ip), vehicle: gum acacia 97 % of control | dose: 100.0 mg/kg/injection, schedule: Q04DX003 (ip), vehicle: gum acacia 102 % of control | dose: 200.0 mg/kg/injection, schedule: Q01DX009 (ip), vehicle: gum acacia 90 % of control | dose: 200.0 mg/kg/injection, schedule: Q04DX003 (ip), vehicle: gum acacia 96 % of control | dose: 400.0 mg/kg/injection, schedule: Q01DX009 (ip), vehicle: gum acacia 101 % of control | dose: 400.0 mg/kg/injection, schedule: Q04DX003 (ip), vehicle: gum acacia 101 % of control

CC(=O)[O][Hg][c]1cc(C)c(O)c([N+](=O)[O-])c1
inactive: dose: 1.56 mg/kg/injection, schedule: Q04DX003 (ip), vehicle: Klucel (hydroxypropylcellulose) (HPC) 105 % of control | dose: 3.12 mg/kg/injection, schedule: Q01DX009 (ip), vehicle: Klucel (hydroxypropylcellulose) (HPC) 95 % of control | dose: 3.12 mg/kg/injection, schedule: Q04DX003 (ip), vehicle: Klucel (hydroxypropylcellulose) (HPC) 115 % of control | dose: 6.25 mg/kg/injection, schedule: Q01DX009 (ip), vehicle: Klucel (hydroxypropylcellulose) (HPC) 96 % of control | [9] 117 % of control | [10] 109 % of control

COC1OC(CCl)C(OC(C)=O)C(OC(C)=O)C1OC(C)=O (stereo unspecified)
inactive: [11] 96 % of control and 106 % of control | [12] 104 % of control and 106 % of control | [13] 101 % of control and 103 % of control

O=C1OC(=O)C2C3C=CC(C3)C12 (stereo unspecified)
inactive: dose: 12.5 mg/kg/injection, schedule: Q01DX009 (ip), vehicle: saline with Tween-80 97 % of control | dose: 25.0 mg/kg/injection, schedule: Q01DX009 (ip), vehicle: Klucel (hydroxypropylcellulose) (HPC) 100 % of control | dose: 25.0 mg/kg/injection, schedule: Q01DX009 (ip), vehicle: saline with Tween-80 100 % of control | dose: 50.0 mg/kg/injection, schedule: Q01DX001 (ip), vehicle: carboxymethylcellulose (CMC) 104 % of control | [1] 96 % of control | [14] 96 % of control | [15] 106 % of control and 96 % of control | [2] 105 % of control and 87 % of control | [16] 90 % of control | [3] 102 % of control | dose: 100.0 mg/kg/injection, schedule: Q04DX003 (ip), vehicle: saline with Tween-80 98 % of control | [17] 104 % of control and 91 % of control | [18] 92 % of control | [5] 89 % of control | dose: 200.0 mg/kg/injection, schedule: Q04DX003 (ip), vehicle: saline with Tween-80 98 % of control | [19] 95 % of control and 96 % of control | dose: 400.0 mg/kg/injection, schedule: Q01DX009 (ip), vehicle: saline with Tween-80 88 % of control | dose: 400.0 mg/kg/injection, schedule: Q04DX003 (ip), vehicle: saline with Tween-80 97 % of control

O=C1CC(C(=O)O)c2ccccc21 (stereo unspecified)
inactive: [7] 93 % of control | [8] 90 % of control | [20] 93 % of control

O=C1C=CC(=O)N1c1ccc(Cl)cc1 (tested in a mixture with another compound)
inactive: dose: 100.0 mg/kg/injection, schedule: Q04DX003 (ip), vehicle: acetone 94 % of control | dose: 200.0 mg/kg/injection, schedule: Q04DX003 (ip), vehicle: acetone 103 % of control | dose: 400.0 mg/kg/injection, schedule: Q04DX003 (ip), vehicle: acetone 87 % of control

CC(=O)Oc1ccc(C2CC(=O)N(CCN(C)C)C2=O)cc1 (stereo unspecified)
inactive: dose: 100.0 mg/kg/injection, schedule: Q01DX001 (ip), vehicle: saline 107 % of control | dose: 200.0 mg/kg/injection, schedule: Q01DX001 (ip), vehicle: saline 90 % of control | dose: 400.0 mg/kg/injection, schedule: Q01DX001 (ip), vehicle: saline 100 % of control

CCOC(=O)CS(=O)(=O)CS(=O)(=O)CC(=O)OCC
inactive: [11] 94 % of control | [12] 100 % of control | [13] 100 % of control

CCc1ccccc1NC(=O)Nc1cc(C)on1
inactive: [2] 103 % of control | [4] 110 % of control | [21] 107 % of control

COc1cc([N+](=O)[O-])ccc1NC(=O)Oc1cc(C)ccc1C(C)C
inactive: [2] 103 % of control | [4] 104 % of control | [21] 104 % of control

CCOC(=O)C[n+]1ccc(C(=O)c2cc3ccccc3[nH]2)cc1
inactive: [16] 93 % of control | [18] 92 % of control

O=C1NC(c2ccccc2)(c2ccccc2)C(=O)N1CC1CO1 (stereo unspecified)
inactive: [8] 100 % of control | dose: 100.0 mg/kg/injection, schedule: Q04DX003 (ip), vehicle: saline 103 % of control | [20] 91 % of control | dose: 200.0 mg/kg/injection, schedule: Q04DX003 (ip), vehicle: saline 102 % of control | dose: 400.0 mg/kg/injection, schedule: Q01DX009 (ip), vehicle: saline 93 % of control | dose: 400.0 mg/kg/injection, schedule: Q04DX003 (ip), vehicle: saline 97 % of control

CCCCC(NC(=O)OCc1ccccc1)C(=O)NCC(=O)OCC (stereo unspecified) (Cbz-[ξNle]-Gly-OEt)
inactive: [14] 97 % of control | [16] 97 % of control | [18] 104 % of control

CCCCC#CC(=O)OCCCCC
inactive: [16] 105 % of control | [18] 91 % of control

O=C(NC(Cc1ccccc1)C(=O)N1CCCCC1)c1ccccc1 (stereo unspecified)
inactive: [15] 101 % of control | [17] 92 % of control | [19] 90 % of control

NC(N)=N/N=C/c1cccc2ccccc12
inactive: dose: 3.8 mg/kg/injection, schedule: Q01DX Z (ip), vehicle: other 102 % of control | dose: 6.25 mg/kg/injection, schedule: Q01DX009 (ip), vehicle: saline 95 % of control | [9] 104 % of control | dose: 7.5 mg/kg/injection, schedule: Q01DX Z (ip), vehicle: other 97 % of control | dose: 12.5 mg/kg/injection, schedule: Q01DX009 (ip), vehicle: saline 98 % of control | [10] 100 % of control | dose: 15.0 mg/kg/injection, schedule: Q01DX Z (ip), vehicle: other 105 % of control | [6] 88 % of control | dose: 25.0 mg/kg/injection, schedule: Q04DX003 (ip), vehicle: Klucel (hydroxypropylcellulose) (HPC) 104 % of control | dose: 30.0 mg/kg/injection, schedule: Q01DX Z (ip), vehicle: other 94 % of control

CCc1cccc(CC)c1N=C=Nc1c(CC)cccc1CC
inactive: dose: 100.0 mg/kg/injection, schedule: Q04DX003 (ip), vehicle: other 104 % of control | dose: 200.0 mg/kg/injection, schedule: Q04DX003 (ip), vehicle: other 100 % of control | dose: 400.0 mg/kg/injection, schedule: Q04DX003 (ip), vehicle: other 104 % of control

CCCCCCCCCCCCCCCCCC(=O)Nc1ccc(OC(=O)NC)cc1
inactive: [2] 93 % of control | [4] 88 % of control

O=C1c2ccccc2CC/C(=N\O)C1c1ccccc1 (stereo unspecified)
inactive: [22] 107 % of control | [23] 98 % of control | dose: 400.0 mg/kg/injection, schedule: Q01DX001 (ip), vehicle: saline with Tween-80 104 % of control

CCOCc1cnc(C)nc1N
inactive: [22] 94 % of control | [23] 94 % of control
